# Values quoted from earlier work as cited in US20230111756A1, “STABLE FORMULATIONS OF PLANTS EXTRACTS AND METHODS OF MAKING THE SAME” (Nulixir Inc., priority 2021, published 2023).
# Conditions: reference solvents n-octanol and water; categorization at pH=7 unless stated otherwise
row,Compound,log P
1,"COc1cc2c(c(OC)c1OC)-c1c(cc3c(c1OC)OCO3)CC(C)C(C)C2 (single isomer, unassigned; (-)) [(−)-schisandrin B]",~4
2,"COc1cc(/C=C/c2ccccc2)oc(=O)c1 [5,6-dehydrokawain]",~2.9
3,"COC1=CC(=O)OC(/C=C/c2ccc(OC)cc2)C1 (stereo not shown) [5,6-dihydroyangonin]",~2.5
4,CC1=C(CO)C(=O)O[C@@H]([C@@H](C)[C@H]2CC[C@H]3[C@@H]4C[C@H](Cl)[C@]5(O)[C@@H](O)C=CC(=O)[C@]5(C)[C@H]4CC[C@]23C)C1 [6a-chloro-5b-hydroxywithaferin A],~3.2
5,"COC1=CC(=O)O[C@@H](CCc2ccc3c(c2)OCO3)C1 [7,8-dihydromethysticin]",~2.2
6,"COc1ccc(CCc2cc(OC)cc(=O)o2)cc1 [7,8-dihydroyangonin]",~2.9
7,COc1cc(/C=C\c2ccc(OC)c(O)c2)oc(=O)c1 [11-hydroxyyangonin],~2.2
8,COc1cc2c(c(OC)c1OC)-c1c(cc(OC)c(OC)c1OC)C[C@](C)(O)[C@@H](C)C2 [(+)-schisandrin],~5
9,COc1cc2c(c(OC)c1OC)-c1c(cc(OC)c(OC)c1OC)C[C@H](C)[C@H](C)C2 [(−)-schisandrin A],~3.6
10,COc1c2c(cc3c1-c1c(cc4c(c1OC)OCO4)C[C@H](C)[C@H](C)C3)OCO2 [(−)-schisandrin C],~3.5
11,COc1ccc([C@@]23CCC(=O)C[C@@H]2N(C)CC3)cc1OC [mesembrine],1.5
12,COc1nc2c(c(=O)n1C)n(C)c(=O)n2C [methylliberine],~−0.083
13,CC(=O)OC1C=CC(=O)N(C(=O)CCc2ccccc2)C1 (stereo not shown) [pipermethystine],~1.8
14,COc1cc([C@H]2Oc3cc(O)c4c(=O)c(O)c(-c5ccc(O)cc5)oc4c3O[C@@H]2CO)ccc1O [rhodiolin],~2
15,COc1cc2c(c(OC)c1OC)-c1c(cc(OC)c(OC)c1OC)C[C@](C)(O)[C@@H](C)C2 [schisandrol A],~3.4
16,N#C[C@@]1(O[C@@H]2O[C@H](CO)[C@@H](O)[C@H](O)[C@H]2O)C=C[C@@H](O)C1 [tetraphyllin B],~−2.5
17,(R)-kawain,~2.7
18,bacopaside B,~2.8
19,hericerin,~6.4
20,herinacine A,~2.5
21,schisandroside C,~1.6
22,tortuosomine,3
